What all share (experiment): relative viability (nuclei count vs DMSO), 5 days (fraction); higher = more cells survive
Compound in assay [1]: CC(C)=CC[C@@H](O)C1=CC(=O)c2c(O)ccc(O)c2C1=O [Shikonin] + CS(=O)(=O)N1CCN(Cc2cc3nc(-c4cccc5[nH]ncc45)nc(N4CCOCC4)c3s2)CC1 [Pictilisib] (partner 1 µM)
An outline of the steps:
(§1)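 Relative viability was taken as the ratio of nuclei in treated wells to nuclei in vehicle wells. Lung cancer cell lines in 1536-well plates received compounds by pin tool one day after seeding, either one drug alone or a fixed anchor-drug dose plus five library-drug doses (not always all listed) in √10 steps. Nuclei were counted on 4× images after 5 days of treatment, and values are medians of duplicate plates.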

Compound in assay [2]: CC(C)N(CCCNC(=O)Nc1ccc(C(C)(C)C)cc1)C[C@H]1O[C@@H](n2ccc3c(N)ncnc32)[C@H](O)[C@@H]1O + COc1cc2c(Oc3ccc(NC(=O)C4(C(=O)Nc5ccc(F)cc5)CC4)cc3F)ccnc2cc1OCCCN1CCOCC1 [Foretinib] (partner 0.25 µM)
The method in brief:
as §1

Compound in assay [3]: CC(C)N(CCCNC(=O)Nc1ccc(C(C)(C)C)cc1)C[C@H]1O[C@@H](n2ccc3c(N)ncnc32)[C@H](O)[C@@H]1O + CS(=O)(=O)CCNCc1ccc(-c2ccc3ncnc(Nc4ccc(OCc5cccc(F)c5)c(Cl)c4)c3c2)o1 [Lapatinib] (partner 2 µM)
An outline of the steps: as §1

Compound in assay [4]: CC(C)N(CCCNC(=O)Nc1ccc(C(C)(C)C)cc1)C[C@H]1O[C@@H](n2ccc3c(N)ncnc32)[C@H](O)[C@@H]1O + O=C(CCCCCCC(=O)Nc1ccccc1)NO [Vorinostat] (partner 1 µM)
An outline of the steps:
as §1

As to UMC-11, the relative viability in assay [1] (first compound 0.01 µM) amounted to 0.736; in assay [1] (first compound 0.1 µM), 0.999; in assay [1] (first compound 0.3162 µM), 0.76; in assay [1] (first compound 1 µM), 0.97; in assay [2] (first compound 0.08 µM), 0.979; in assay [2] (first compound 0.253 µM), 0.984. Besides, the relative viability in assay [2] (first compound 0.8 µM) came out at 1.06; in assay [2] (first compound 2.53 µM) it was 0.975; in assay [2] (first compound 8 µM), 1.02; in assay [3] (first compound 0.08 µM) it was 0.864; in assay [3] (first compound 0.253 µM) it was 0.772; in assay [3] (first compound 0.8 µM), 0.846. The relative viability in assay [3] (first compound 2.53 µM) turned out to be 1.02; in assay [3] (first compound 8 µM) it was 1.05; in assay [4] (first compound 0.08 µM), 0.357; in assay [4] (first compound 0.253 µM), 0.419; in assay [4] (first compound 0.8 µM) it was 0.431; in assay [4] (first compound 2.53 µM), 0.35. Also, the relative viability in assay [4] (first compound 8 µM) amounted to 0.386.

Values taken from the supplement of paper PMC10307832.
